What was measured:
Type in all cases: cell-based, human
[1] = system: Capan-2; assay: MTT cell viability assay
Experimental: (§1) The cell viability was assessed using MTT assay, as previously described. Briefly, the cells were seeded in 96-well plates (4 × 10^3 cells/well) and were treated for 72 h with different concentrations of RSV, DF5, and DF12. The IC50 values were extrapolated from dose–response curves and calculated using the CompuSyn software (https://www.combosyn.com/). The selectivity index (SI) values were calculated as ratios between the IC50 values of compounds in normal HFF-1 fibroblast cells and the IC50 values of the same compounds in the PC cell lines.

[2] = system: BxPC-3; assay: MTT cell viability assay
Experimental: as §1

[3] = system: AsPC-1; assay: MTT cell viability assay
Experimental: as §1

[4] = system: AsPC-1, BxPC-3 and Capan-2 PC cell lines; assay: Cell growth, trypan blue exclusion test; conditions: 50 μM, counted at 24, 48 and 72 h, three PC cell lines, vs control
Experimental: The cell counting was performed using the trypan blue exclusion test. Briefly, PC cells were seeded in 24-well plates (5 × 10^4 cells/well) and then were treated with 50 μM of DF5, RSV, or with vehicle and counted at 24, 48, and 72 h.

[5] = system: Capan-2; assay: Flow cytometry immunophenotyping of CD133+EpCAM+ cancer stem-like subpopulation; conditions: Capan-2, 20 μM, 72 h
Experimental: (§2) The expression of CD133 and EpCAM surface antigens was evaluated using flow cytometry. Briefly, the PC cells were seeded in 6-well plates and treated for 72 h with 20 μM DF5, RSV, or with vehicle (DMSO). After treatment, the cells were collected in PBS and stained at room temperature in the dark for 30 min with PE-CD133, FITC-EpCAM antibodies, and Reactive Dye. After labeling, the samples were washed in PBS by centrifugation at 1500 rpm for 10 min, to remove excess antibodies. Flow cytometer performance, stability, and data reproducibility were daily checked by using the CS&T quality control Module (BD Biosciences). The gating strategy and the evaluation of non-specific fluorescence was determined using fluorescence minus one (FMO) controls. The data were acquired with FACSVerse analyzer equipped with a volumetric count module (BD Biosciences, San Jose, CA, USA) and are expressed as the percentage of positive cells.

[6] = system: BxPC-3; assay: as above; conditions: BxPC-3, 20 μM, 72 h
Experimental: as §2

[7] = system: AsPC-1; assay: as above; conditions: AsPC-1, 20 μM, 72 h
Experimental: as §2

[8] = system: p-SER^139H2AX; assay: Western blot of phospho-H2AX (γH2AX) in PC cell lines
Experimental: The PC cell lines treated with 50 μM DF5, RSV, or with vehicle (DMSO) were lysed in a cell lysis buffer containing PMSF, protease inhibitors cocktails, and phosphatase inhibitors. The protein lysate quantification and immunoblot analyses were performed as previously described.

Cc1ccc(/C=C/c2ccc(O)cc2)cc1 [DF5]
effect on cell viability at maximum tested concentration ([1]; Capan-2, MTT, 100 µM): almost complete loss of cell viability | IC50 ([1]; Homo sapiens, Capan-2, MTT, 72 h): 27.8 µM | Selectivity Index (SI) Capan-2 ([1]; SI = IC50 on normal HFF-1 fibroblast cells/IC50 on Capan-2): > 3.60 | IC50 ([2]; Homo sapiens, BxPC-3, MTT, 72 h): 22.7 µM | Selectivity Index (SI) BxPC-3 ([2]; SI = IC50 on normal HFF-1 fibroblast cells/IC50 on BxPC-3): > 4.41 | IC50 ([3]; Homo sapiens, ASPC1, AsPC-1, MTT, 72 h): 14.7 µM | Selectivity Index (SI) AsPC-1 ([3]; SI = IC50 on normal HFF-1 fibroblast cells/IC50 on AsPC-1): > 6.79 | effect on cell growth (cell number) [4]: significantly, drastically, and comparably affected cell growth | effect on percentage of CD133+EpCAM+ cancer stem-like subpopulation [5]: sharp and statistically significant reduction | effect on percentage of CD133+EpCAM+ cancer stem-like subpopulation [6]: statistically significant impact | effect on percentage of CD133+EpCAM+ cancer stem-like subpopulation [7]: sharp and statistically significant reduction | activation (phosphorylation) of H2AX ([8]; AsPC-1, 50 μM): marked activation of H2AX | activation (phosphorylation) of H2AX ([8]; BxPC-3, 50 μM): negligible activation | activation (phosphorylation) of H2AX ([8]; Capan-2, 50 μM): less marked
